# Measurements from patent US20050002983A1, “Devices, methods, and compositions to prevent restenosis” (priority 2003, published 2005).
# Columns and labels:
# [1] = system: Human aortic smooth muscle cells; assay: IC50 by CellTiter-Glo Luminescent Cell Viability Assay, smooth muscle cells; type: cell-based
# Protocol: The cells were seeded in duplicate, in opaque-walled 96-well microtiter plates at a cell density of 3,000 cells per well and allowed to attach overnight. Serial dilutions of each drug were added, and the cells were incubated for 96 hours. The IC50 values for the drugs was determined using the CellTiter-Glo Luminescent Cell Viability Assay (Promega, Madison, Wis.), which correlates with the number of live cells.
# [2] = system: endothelial cells; assay: Cytotoxicity IC50 against endothelial cells; type: cell-based
# [3] = Solubility in PBS; type: physicochemical
# [4] = system: Human aortic smooth muscle cells (AoSMCs); assay: MTS cell viability/proliferation assay, AoSMC, Days 0-5; conditions: for dose-response of cell viability (optical density): 10, 100, 1,000 nM, SMCs and HUVECs, Days 0-5
# Protocol: Human aortic smooth muscle cells (“AoSMCs”) and human umbilical vein endothelial cells (“HUVECs”) were plated on 96-well culture plates at a density of about 10,000 cells per square centimeter (10,000 cells/cm^2). The density was determined using growth curves determined by calculating the average absolute optical densities (“ODs”, defined as cellular OD—media only OD) for each plating concentration, for each day, and each cell type (AoSMC or HUVEC) over a five-day time period.
# Prior to experiments, the AoSMCs and HUVECS were thawed and independently propagated through two- or three population doublings following Clonetics recommendations and standard cell culture techniques. Clonetics Growth Media and Reagents were used without alteration in all aspects of the study described herein unless otherwise noted. […] SMGM contained: 500 ml SMBM-2 basal media, 5% FBS, and all recommended singlequot growth supplements (provided with SMGM-2 bulletkit) ECGM contained: 500 ml EBM basal media, 2% FBS, and all recommended singlequot growth supplements (provided with EGM-bulletkit).
# After initial plating all 96-well plates were placed in a standard 37° C., 5% CO2 incubator. Conditions, including media, were not changed except as detailed below. For consecutive 24-hour time-periods, from Day 1 to Day 5, a single 96-well plate was removed from the incubator.
# Cell Preparation Source cells were selected at 70-80% confluency of the second or third population doubling since initial thaw. In order to synchronize cell cycle, source cells were changed from standard growth media to media containing 1% serum twenty-four hours prior to experiment (other growth factors were unchanged). On Day 0 of the experiment, source cells were removed from culture dishes by trypsinization (0.05×1 min.-2 min), quantified by hemacytometer after centrifuge (800 RPM×5 min.), and re-suspended in media to obtain a stock solution of about 25,000 cells/ml.
# The drugs were dissolved in dimethylsulfoxide (“DMSO”) solvent to make stock solutions, which were then diluted serially in media to three study concentrations (10 nM; 100 nM; and 1,000 nM). The drugs at three concentration each, solvent without drug at three concentrations, and standard media were added independently to cells on the first day of the study only. Cells in two columns (16 wells) for each cell type on each day will not receive drug and serve as internal controls. Cellular viability and proliferation was assessed using the MTS assay for each cell type at each of the six time points.
# On Day 1, six hours after initial plating, the media was removed from all wells by vacuum suction; and with the appropriate growth media-drug solution for each of three drugs at three concentrations described above was added to the wells. […]
# [5] = Release kinetics of epothilone D from polymer matrices; type: physicochemical
compound,measurement,setting,value
"C=CCNC1=C2C[C@@H](C)C[C@H](OC)[C@H](O)[C@@H](C)/C=C(\C)[C@H](OC(N)=O)[C@@H](OC)/C=C\C=C(/C)C(=O)NC(=CC1=O)C2=O [17-AAG, 17-allylamino-17-desmethoxygeldanamycin]",IC50,[1]; smooth muscle cells,~0.01 µM
same,IC50,[2],0.35 µM
same,solubility,[3],60 micrograms/mL
same,dose-response of cell viability (optical density),[4],dose-response characteristics consistent with utility to reduce or prevent restenosis
"COC1=C2C[C@@H](C)C[C@H](OC)[C@H](O)[C@@H](C)/C=C(\C)[C@H](OC(N)=O)[C@@H](OC)/C=C\C=C(/C)C(=O)NC(=CC1=O)C2=O [geldanamycin, reference compound]",IC50,[1]; Homo sapiens,~0.0009 µM
"CO[C@H]1/C=C\C=C(/C)C(=O)NC2=CC(=O)C(NCCN(C)C)=C(C[C@@H](C)C[C@H](OC)[C@H](O)[C@@H](C)/C=C(\C)[C@@H]1OC(N)=O)C2=O [17-DMAG, 17-[2-(dimethylamino)ethylamino]-17-desmethoxygeldanamycin]",dose-response of cell viability (optical density),[4],dose-response characteristics consistent with utility to reduce or prevent restenosis
same,selectivity for SMCs over ECs,"[4]; AoSMC vs HUVEC viability, 10-1,000 nM",relative selectivity for SMCs over ECs
C/C1=C/C[C@@H](/C(C)=C/c2csc(C)n2)OC(=O)C[C@H](O)C(C)(C)C(=O)[C@H](C)[C@@H](O)[C@@H](C)CCC1 [epothilone D],release rate from polymer matrix,[5]; from poly(lactide),approximately 6 micrograms/day
same,release rate from polymer matrix,[5]; from polyurethane,1.58 micrograms/day
same,dose-response of cell viability (optical density),[4],dose-response characteristics consistent with utility to reduce or prevent restenosis
